Experiments:
human β1-AR [1] = molecular target: T1, human β1-AR (Homo sapiens, UniProt P08588); experiment: Direct measurement of ERK1/2 MAPK phosphorylation in CHO-β1 cells; type: cell-based; settings: 3 and 10 μM, 5- and 10-min incubations
T1 construct: expressed in transfected cells
Procedure: MAPK stimulation was examined by using the AlphaScreen Surefire ERK1/2 T202/Y204 assay kit from TGR Biosciences (PerkinElmer, Waltham, MA, USA), which gives a direct quantitative readout of ERK1/2 (p42/44) MAPK phosphorylation. Confluent cells (half-well 96-well plates) were serum starved for 24 h, then the assay was performed per manufacturer instructions (5- and 10-min incubations at 37°C: ligand concentrations of 3 and 10 μM). Phorbol 12,13-dibutyrate (1 μM) was used as a positive control.

human β1-AR [2] = molecular target: T1, human β1-AR; experiment: Antagonism of cimaterol-induced 3H-cAMP accumulation in CHO-β1 cells; type: cell-based; settings: for Schild slope: CHO-β1 cells, 3 antagonist concentrations, 1 = competitive antagonism; for Kd: Gaddum equation, cimaterol agonist, mean ± SEM, read-out: Log Kd,β1 (converted); for SI1b (in vitro inhibition of functional response) = Kd,β2/Kd,β1: Kd values from antagonism of cimaterol-induced 3H-cAMP accumulation, Table 2; for β1 vs. β2 selectivity Kd,β2/Kd,β1: from antagonism of cimaterol-induced 3H-cAMP accumulation
Procedure: (§1) Confluent cells were examined (24-well plates, 5 h incubation at 37°C) as described in Baker ([45]). Antagonist Kd values were calculated from a rightward shift of the agonist concentration response curve by using the Gaddum equation as previously described ([46]).

human β1-AR [3] = molecular target: T1, human β1-AR; experiment: Duration of ligand binding (washout, 3H-CGP12177 whole-cell binding in CHO-β1 cells); settings: greater shift = shorter duration of binding; mean ± SEM
Procedure: A method that involved ligand washout was used as described ([44]). Cells were incubated with either competing ligand and ^3H-CGP12177 for 2 h (control plate), or competing ligand alone for 2 h (duration plate). After 2 h, the control plate was processed while the duration plate was washed, and ^3H-CGP12177 alone was added to wells and incubated for a second 2 h before processing. […] Relative measures of ligand duration of binding are indicated by the degree of rightward shift of displacement curves ([44]).

[4] = Bidirectional CaCo-2 permeability; type: in vitro ADME; settings: human, hydrochloride salts used; for efflux ratio at 90 min, 20 µM: Caco-2, pH 7.4, read-out: Efflux ratio Papp, B-A/Papp, A-B; for Papp A→B at 90 min, 20 µM: Caco-2, pH 7.4, 90 min, mean ± SD
Procedure: (§2) CaCo-2 cells were grown in Transwell permeable supports, and confluency was assessed by transepithelial electrical resistance measurements (>270 Ω/cm^2) and by unidirectional permeability (apical-basolateral) of the low- and high-permeability reference compounds, ^14C-mannitol and ^3H-propranolol. NDD-713.HCl and -825.HCl (20 µM in HBSS that contained 20 mM HEPES, pH 7.4) were transferred to the donor compartment of Transwell plates and the acceptor compartments were filled with blank HBSS. Permeability was determined over 90 min by sampling both compartments. Quantitation of compound concentrations in donor and acceptor samples was by liquid chromatography–mass spectrometry (LC-MS; lower limit of quantification, 0.5–1.5 ng/ml), and for ^14C-mannitol and ^3H-propranolol, by liquid scintillation counting. Apparent permeability coefficients (Papp) were calculated as follows: Papp (cm/s) = dQ/dT × 1/(C0 × A), where dQ/dt = apparent steady-state transport rate (μmol/s); C0 = initial concentration in the chamber (μmol/cm^3); and A = surface area of CaCo-2 monolayer (0.3cm^2). Efflux ratios were calculated as the ratio of mean Papp values in B→A and A→B directions. Studies were carried out by CDCO.

CaCo-2 cells = experiment: Bidirectional CaCo-2 permeability; type: in vitro ADME; settings: for Apical-to-basolateral membrane permeability (class in words): bidirectional CaCo-2 assay; for Mass balance A-B: hydrochloride salts used
Procedure: as §2

human β1-AR [5] = molecular target: T1, human β1-AR; experiment: CRE-SPAP reporter gene assay in CHO-β1 cells; type: cell-based; settings: agonist mode, n = 5
Procedure: cAMP response element (CRE)–secreted placental alkaline phosphatase (SPAP) production was measured in confluent cells (96-well plates, 5 h incubation at 37°C) as described in Baker ([46]). This assay is a sensitive measure of both cAMP and ERK1/2 MAPK pathways ([47]).

human β3-AR = molecular target: T2, human β3-AR (Homo sapiens, UniProt P13945); experiment: Radioligand binding at human β3-AR
T2 construct: expressed in transfected cells
Procedure: Chinese hamster ovary (CHO) cells that stably express human β1-ARs (CHO-β1: 1146 fmol/mg protein), human β2-ARs (CHO-β2: 466 fmol/mg protein), or human β3-ARs (CHO-β3: 790 fmol/mg protein) were grown as previously described ([11]). Human bronchial smooth muscle cells were obtained from Lonza (Basel, Switzerland) and grown in manufacturer media. Rat β-AR binding experiments (DNA from cDNA Resource Centre, Bloomsburg, PA, USA) were conducted by using transiently transfected CHO cells ([44]).
Confluent cells were examined (96-well plates, 2 h incubation at 37°C) as previously described ([11]) with ^3H-CGP12177 at 0.43–3.03 nM. Propranolol (10 μM) defined nonspecific binding. Kd values were derived from IC50 values by using the Cheng-Prusoff equation as previously described ([11]).

human β2-AR [6] = molecular target: T3, human β2-AR (Homo sapiens, UniProt P07550); experiment: Antagonism of cimaterol-induced 3H-cAMP accumulation in CHO-β2 cells; type: cell-based; settings: cimaterol agonist, mean ± SEM, read-out: Log Kd,β2 (converted)
T3 construct: expressed in transfected cells
Procedure: as §1

human β2-AR [7] = molecular target: T3, human β2-AR; experiment: 3H-CGP12177 whole-cell binding in CHO-β2 cells; settings: mean ± SEM, cells marked ^a are apparent log Kd (specific binding not fully inhibited)

T1 sequence (P08588 whole entry): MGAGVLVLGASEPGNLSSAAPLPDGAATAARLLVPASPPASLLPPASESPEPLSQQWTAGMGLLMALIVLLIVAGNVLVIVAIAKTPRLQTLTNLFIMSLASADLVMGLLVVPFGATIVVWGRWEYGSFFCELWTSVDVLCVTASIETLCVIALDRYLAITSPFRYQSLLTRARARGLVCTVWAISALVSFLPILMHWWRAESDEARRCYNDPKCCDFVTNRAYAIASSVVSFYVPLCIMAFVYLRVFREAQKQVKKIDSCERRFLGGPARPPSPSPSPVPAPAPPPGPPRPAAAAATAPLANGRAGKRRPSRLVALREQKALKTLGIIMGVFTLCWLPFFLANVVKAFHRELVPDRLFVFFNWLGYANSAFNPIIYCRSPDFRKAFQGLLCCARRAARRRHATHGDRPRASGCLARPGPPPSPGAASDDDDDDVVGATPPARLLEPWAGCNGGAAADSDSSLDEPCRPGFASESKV
T3 sequence (P07550 whole entry): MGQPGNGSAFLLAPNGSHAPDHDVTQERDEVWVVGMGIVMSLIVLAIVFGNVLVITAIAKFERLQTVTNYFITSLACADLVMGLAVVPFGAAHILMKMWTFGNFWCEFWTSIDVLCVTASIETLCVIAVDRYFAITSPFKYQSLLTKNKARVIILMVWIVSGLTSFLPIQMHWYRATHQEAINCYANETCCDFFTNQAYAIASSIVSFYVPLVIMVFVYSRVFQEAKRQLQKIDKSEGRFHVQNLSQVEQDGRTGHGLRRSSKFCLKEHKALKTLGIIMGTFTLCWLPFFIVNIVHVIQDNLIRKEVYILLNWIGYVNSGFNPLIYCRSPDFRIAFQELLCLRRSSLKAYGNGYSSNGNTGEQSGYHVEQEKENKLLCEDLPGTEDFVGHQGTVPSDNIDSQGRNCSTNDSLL
T2 sequence (P13945 whole entry): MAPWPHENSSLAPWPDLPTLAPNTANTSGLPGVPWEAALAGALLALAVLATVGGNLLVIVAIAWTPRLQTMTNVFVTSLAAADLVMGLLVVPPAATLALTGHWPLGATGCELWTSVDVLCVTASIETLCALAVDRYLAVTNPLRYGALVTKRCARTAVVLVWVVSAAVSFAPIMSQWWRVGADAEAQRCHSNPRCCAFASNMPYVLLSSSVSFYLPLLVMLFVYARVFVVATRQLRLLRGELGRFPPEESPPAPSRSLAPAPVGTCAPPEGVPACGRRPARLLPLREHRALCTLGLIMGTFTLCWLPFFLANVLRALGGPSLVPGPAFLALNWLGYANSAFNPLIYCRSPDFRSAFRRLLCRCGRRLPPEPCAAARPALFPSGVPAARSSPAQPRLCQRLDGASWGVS

| Compound | Agonist response by directly measuring ERK1/2 MAPK (human β1-AR [1]) | Schild slope (human β1-AR [2]) | Kd (human β1-AR [2]) | SI1b (in vitro inhibition of functional response) = Kd,β2/Kd,β1 (human β1-AR [2]) | β1 vs. β2 selectivity Kd,β2/Kd,β1 (human β1-AR [2]) | Log shift (rightward shift of washout curve vs control) (human β1-AR [3]) | efflux ratio at 90 min, 20 µM [4] | Papp A→B at 90 min, 20 µM [4] | Apical-to-basolateral membrane permeability (class in words) (CaCo-2 cells) | Mass balance A-B (CaCo-2 cells) | CRE-SPAP production relative to isoprenaline maximum (human β1-AR [5]) | Affinity at human β3-AR (human β3-AR) | Kd (human β2-AR [6]) | Kd (human β2-AR [7]) |
| --- | --- | --- | --- | --- | --- | --- | --- | --- | --- | --- | --- | --- | --- | --- |
| O=C1NCc2cc(OCCNC[C@H](O)COc3ccc4c(c3)OC[C@@H](COCC3CC3)O4)ccc21 [NDD-825] | did not stimulate any agonist response | 1.04 ± 0.02 | 1.02 nM | 1738 | 1738 | 1.62 ± 0.11 | < 3 | 6.5 ± 0.5 ×10⁻⁶ cm/s | intermediate | 79 ± 11% | no responses were observed | so low that accurate measurements were not possible | 1780 nM | 5370 nM |
| NC(=O)c1ccc(OCCNC[C@H](O)COc2ccc3c(c2)OC[C@@H](COCC2CC2)O3)cc1 [NDD-713] | did not stimulate any agonist response | 1.06 ± 0.03 | 3.02 nM | 1202 | 1202 | 1.75 ± 0.08 | < 3 | 25 ± 4 ×10⁻⁶ cm/s | high | 76 ± 10% | no responses were observed | so low that accurate measurements were not possible | 3630 nM | 8910 nM |

Reference: PMC5471521, “Novel selective β1-adrenoceptor antagonists for concomitant cardiovascular and respiratory disease” (The FASEB Journal, 2017)
